Measured values: patent publication US4629728A, “Antihypoxemic 5-(4-substituted piperazinyl)alkyl-8-substituted quinolines” (ADIR S.A.R.L., priority 1984, dated 1986)
Like-named read-outs stand apart in the source and are kept apart here.

Experiments:
[1] = prolongation of life in acute global ischemic syndrome by intravenous injection of magnesium chloride; type: in vivo; conditions: mice; for minimal effective dose: Mus musculus
Protocol: The compounds of general formula I are tested by their capacity to prolong the life of mice submitted to an acute global ischemic syndrome by intravenous injection of magnesium chloride.

[2] = survival in acute global hypoxic syndrome due to inhalation of pure azote; type: in vivo; conditions: Mus musculus; mice, intraperitoneal route or per os; read-out: average effective dose (ED50) increasing the survival time by 50% in relation to the control animals
Protocol: In the same way, the compounds of general formula I show a protective effect in mice during an acute global hypoxic syndrome due to inhalation of pure azote. The beneficial action is seen at the same doses as for the previous test. The same effective dose relation is found with the reference substances.
The average effective dose (ED50) increasing the survival time by 50% in relation to the control animals is approximately 3 mg/kg when these compounds are administered by intraperitoneal route or per os particularly with the compounds of Examples 38, 40, 51 and 54 described herein after.

[3] = cerebral oedema by hypoperfusion of 1 hour (ischemic syndrome) or by triethyl tin per os; type: in vivo; conditions: reference substances
cortical electrogenesis = test: iterative anoxias test (losses of cortical electrogenesis); type: in vivo; conditions: rats, administered intravenously
Protocol: The protective activity vis-a-vis the losses of cortical electrogenesis connected to the ischemic or hypoxic syndrome is evaluated by the iterative anoxias test in rats. […] After the second anoxia, whilst the control animals no longer recuperate their electrocortical activity, the animals treated with the compounds in particular the compounds described in Examples 30, 37, 38, 40 and 54 recover it when they have received by IV perfusion 33 micro g/kg of these. The reference substances only restore it later, at the 120th second for eburnamonine or nicergoline.

[4] = tested on: mitochondrias of the cerebral cortex; test: oxidative phosphorylation capacity of mitochondrias of the cerebral cortex after an ischemic syndrome; type: in vivo, rats; conditions: ischemied rat, reference products
Text: These same compounds show their pharmacological action vis-a-vis losses of the oxidative phosphorylation capacity of mitochondrias of the cerebral cortex obtained after an ischemic syndrome in rats. […] The same activity is only obtained for the reference products with dihydroergotoxine.

[5] = ip, intraperitoneal route, MgCl2 i.v., read-out: dose from which life of ischemied mice is significantly prolonged

Row | Compound | minimal effective dose [1, 5] [mg/kg] | ED50 [2] [mg/kg] | further results
1 | COc1ccccc1N1CCN(CCc2ccc(OS(C)(=O)=O)c3c2CCCN3)CC1 [Example 30, 5-{2-[4-(2-methoxyphenyl)piperazinyl]ethyl}-8-methylsulfonyloxy-1,2,3,4-tetrahydro quinoline] | 1 |  | 
2 | CC(=O)N1CCCc2c(CCN3CCN(c4ccccn4)CC3)ccc(O)c21 [Example 38, 1-acetyl-5-{2-[4-(2-pyridyl)piperazinyl]ethyl}-8-hydroxy-1,2,3,4-tetrahydro quinoline] | 1 | ~3 | 
3 | COc1ccccc1N1CCN(CCc2ccc(OC)c3c2CCCN3C(C)=O)CC1 [Example 40, 1-acetyl-5-{2-[4-(2-methoxyphenyl)piperazinyl]ethyl}-8-methoxy-1,2,3,4-tetrahydro quinoline] | 1 | ~3 | 
4 | COc1ccccc1N1CCN(CCc2ccc(O)c3c2CCCN3C)CC1 [Example 51, 1-methyl-5-{2-[4-(2-methoxyphenyl)piperazinyl]ethyl}-8-hydroxy-1,2,3,4-tetrahydro quinoline] |  | ~3 | 
5 | COc1ccccc1N1CCN(CCc2ccc(OC)c3c2CCCN3C=O)CC1 [Example 54, 1-formyl-5-{-2-[4-(2-methoxyphenyl)piperazinyl]ethyl}-8-methoxy-1,2,3,4-tetrahydro quinoline] | 1 | ~3 | 
6 | CO[C@]12C[C@@H](COC(=O)c3cncc(Br)c3)CN(C)[C@@H]1Cc1cn(C)c3cccc2c13 [nicergoline] |  |  | higher dose needed for equally intense anti-oedema protective activity (relative to the compounds) [3]: 3 times more
7 | CC[C@]12CCCN3CCc4c(n(c5ccccc45)[C@@](O)(C(=O)OC)C1)[C@@H]32 [vincamine, reference compound] |  |  | minimal effective dose ([1]; po, per os, reference substances, read-out: effective dose per os (inactive up to / no effect below)): ≥ 100 mg/kg; higher dose needed for equally intense anti-oedema protective activity (relative to the compounds) [3]: 5 times more
8 | dihydroergotoxine |  |  | effective dose per os (inactive up to / no effect below) ([1]; per os, reference substances): > 10 mg/kg; activity in iterative anoxias test compared with the compounds (cortical electrogenesis): comparable activity; activity on mitochondrial oxygen consumption compared with the compounds [4]: same activity
